# Results taken from patent US12275684B2, “Methods for making and using endoxifen” (Atossa Therapeutics, Inc., priority 2017, dated 2025).
# How the values were obtained:
# [1] = Accelerated 10-day stability study of solid (Z)-endoxifen free base (E/Z by HPLC); format: physicochemical; settings: for (E)-endoxifen content / (Z)-endoxifen content / E/Z ratio / Total Impurity: solid
# Procedure: HPLC-UV analyses of the samples was carried out using a Luna phenyl-hexyl column (4.6 mm×150 mm×3 μm of particle size). The column temperature was 40° C. and sample compartment temperature was maintained at ambient temperature. Samples were prepared by dissolving solids and filtrates at 0.2 mg/ml of sample in methanol as sample buffer. Samples were then injected into the column in an injection volume of 20 μl. Likewise, mildly acidic (pH 4.3) ammonium formate buffer/methanol in the mobile phase with gradient elution was used. Mobile phase system consisting of: Mobile Phase A (MPA) buffer was 10 mM HCOONH4 with 0.03% HCOOH buffer in water, and Mobile Phase B (MBP) buffer was 10 mM HCOONH4 in methanol with a gradient program used.
# The run time was 30 m, the flow rate was 1.0 mL/m, and the delay time was 5 m. Samples were detected by UV detection at 243 nm. Retention times were typically from 12.95 to 13.20 m for (E)-endoxifen and from 14.0 to 14.33 m for (Z)-endoxifen. Relative Retention Time (RRT) for (E)-endoxifen was […] and 1.0 for (Z)-endoxifen.
# The stability of (Z)-endoxifen free base Sample 1 of Table 11 was studied when stored at various temperatures in solid form and in ethanol (EtOH) solution. The (E)-endoxifen and (Z)-endoxifen levels were measured on days 2, 7 and 10 following placement of 1 g aliquots of purified (Z)-endoxifen free base in 180 mL HDPE bottles under dry N2, which were then placed in double LDPE bags. The double bagged HDPE bottles containing each sample were individually packed in aluminum foil bags and thermally sealed until they were opened for testing the stability of the samples. The (E)- and (Z)-isomers of endoxifen were monitored by HPLC as disclosed above. The purity of (Z)-endoxifen in solid form remained at about 97% at 40° C., 60° C., and 80° C. up to 10 days.
# [2] = Bulk drug stability study of (Z)-endoxifen free base; format: physicochemical
# Procedure: For bulk stability studies, ˜1 g aliquots of (Z)-endoxifen free base were placed inside individually in double LDPE bags tied with a nylon cable tie. The LDPE bags were then placed in aluminum foil bags and thermally sealed. The samples for stability were placed in tightly capped, 180 mL HDPE bottles under inert conditions (dry nitrogen) at 5° C. and 25° C./60% RH for 12 months, and at 40° C./75% RH for 3 months. The samples were tested for (E)-endoxifen and (Z)-endoxifen concentrations and impurities, moisture or water content by Karl Fischer titration, aerobic bacterial colony forming units and appearance at time points day 0, 10 days, 1 m and 3 m. Table 13 below provides bulk drug stability data at 9 m on endoxifen free base at varying storage conditions.
smiles,measurement,setting,value
"CC/C(=C(\c1ccc(O)cc1)c1ccc(OCCNC)cc1)c1ccccc1 [(Z)-Endoxifen, (Z)-4-(1-(4-(2-(methylamino)ethoxy)phenyl)-2-phenylbut-1-enyl) phenol]",purity of (Z)-endoxifen in solid form,"[1]; 40° C., 60° C., and 80° C. up to 10 days",about 97%
same,(E)-endoxifen content,"[1]; 40° C., 2 days",1.27%
same,(Z)-endoxifen content,"[1]; 40° C., 2 days",97.45%
same,E/Z ratio,"[1]; 40° C., 2 days",1/76
same,Total Impurity,"[1]; 40° C., 2 days",1.28%
same,(E)-endoxifen content,"[1]; 40° C., 7 days",1.2%
same,(Z)-endoxifen content,"[1]; 40° C., 7 days",97.11%
same,E/Z ratio,"[1]; 40° C., 7 days",1/81
same,Total Impurity,"[1]; 40° C., 7 days",1.69%
same,(E)-endoxifen content,"[1]; 40° C., 10 days",1.29%
same,(Z)-endoxifen content,"[1]; 40° C., 10 days",97.31%
same,E/Z ratio,"[1]; 40° C., 10 days",1/75
same,Total Impurity,"[1]; 40° C., 10 days",1.40%
same,(E)-endoxifen content,"[1]; 60° C., 2 days",1.30%
same,(Z)-endoxifen content,"[1]; 60° C., 2 days",97.43%
same,E/Z ratio,"[1]; 60° C., 2 days",1/75
same,Total Impurity,"[1]; 60° C., 2 days",1.27%
same,(E)-endoxifen content,"[1]; 60° C., 7 days",1.17%
same,(Z)-endoxifen content,"[1]; 60° C., 7 days",97.1%
same,E/Z ratio,"[1]; 60° C., 7 days",1/83
same,Total Impurity,"[1]; 60° C., 7 days",1.72%
same,(E)-endoxifen content,"[1]; 60° C., 10 days",1.27%
same,(Z)-endoxifen content,"[1]; 60° C., 10 days",97.48%
same,E/Z ratio,"[1]; 60° C., 10 days",1/82
same,Total Impurity,"[1]; 60° C., 10 days",1.33%
same,(E)-endoxifen content,"[1]; 80° C., 2 days",1.28%
same,(Z)-endoxifen content,"[1]; 80° C., 2 days",97.42%
same,E/Z ratio,"[1]; 80° C., 2 days",1/76
same,Total Impurity,"[1]; 80° C., 2 days",1.30%
same,(E)-endoxifen content,"[1]; 80° C., 7 days",1.34%
same,(Z)-endoxifen content,"[1]; 80° C., 7 days",96.92%
same,E/Z ratio,"[1]; 80° C., 7 days",1/72
same,Total Impurity,"[1]; 80° C., 7 days",1.74%
same,(E)-endoxifen content,"[1]; 80° C., 10 days",1.27%
same,(Z)-endoxifen content,"[1]; 80° C., 10 days",97.33%
same,E/Z ratio,"[1]; 80° C., 10 days",1/77
same,Total Impurity,"[1]; 80° C., 10 days",1.40%
same,interconversion of (Z)- to (E)-endoxifen in solid form,[1]; tested temperatures up to 10 days,does not interconvert to (E)-endoxifen
same,time for which stable,[2]; 40° C./75% RH,at least 3 months
same,(Z)-endoxifen USP <921≥ Plate Count,[2]; Storage 5° C.,13990 cfu g/mL
same,(E)-endoxifen content,"[2]; Storage 5° C., 0 m",0.19%
same,(Z)-endoxifen % Purity,"[2]; Storage 5° C., 0 m",99.5%
same,Max Indiv. Impurity,"[2]; Storage 5° C., 0 m",0.11%
same,Water content (Karl Fischer),"[2]; Storage 5° C., 0 m",0.06%
same,(E)-endoxifen content,"[2]; Storage 5° C., 3 m",0.17%
same,(Z)-endoxifen % Purity,"[2]; Storage 5° C., 3 m",99.6%
same,Max Indiv. Impurity,"[2]; Storage 5° C., 3 m",0.10%
same,Water content (Karl Fischer),"[2]; Storage 5° C., 3 m",0.05%
same,(E)-endoxifen content,"[2]; Storage 5° C., 6 m",0.18%
same,(Z)-endoxifen % Purity,"[2]; Storage 5° C., 6 m",99.5%
same,Max Indiv. Impurity,"[2]; Storage 5° C., 6 m",0.11%
same,Water content (Karl Fischer),"[2]; Storage 5° C., 6 m",0.05%
same,(E)-endoxifen content,"[2]; Storage 5° C., 9 m",0.19%
same,(Z)-endoxifen % Purity,"[2]; Storage 5° C., 9 m",99.5%
same,Max Indiv. Impurity,"[2]; Storage 5° C., 9 m",0.11%
same,Water content (Karl Fischer),"[2]; Storage 5° C., 9 m",0.05%
same,(Z)-endoxifen USP <921≥ Plate Count,[2]; Storage 25° C./60% RH,14030 cfu g/mL
same,(E)-endoxifen content,"[2]; Storage 25° C./60% RH, 0 m",0.19%
same,(Z)-endoxifen % Purity,"[2]; Storage 25° C./60% RH, 0 m",99.5%
same,Max Indiv. Impurity,"[2]; Storage 25° C./60% RH, 0 m",0.11%
same,Water content (Karl Fischer),"[2]; Storage 25° C./60% RH, 0 m",0.06%
same,(E)-endoxifen content,"[2]; Storage 25° C./60% RH, 3 m",0.17%
same,(Z)-endoxifen % Purity,"[2]; Storage 25° C./60% RH, 3 m",99.6%
same,Max Indiv. Impurity,"[2]; Storage 25° C./60% RH, 3 m",0.11%
same,Water content (Karl Fischer),"[2]; Storage 25° C./60% RH, 3 m",0.05%
same,(E)-endoxifen content,"[2]; Storage 25° C./60% RH, 6 m",0.18%
same,(Z)-endoxifen % Purity,"[2]; Storage 25° C./60% RH, 6 m",99.5%
same,Max Indiv. Impurity,"[2]; Storage 25° C./60% RH, 6 m",0.11%
same,Water content (Karl Fischer),"[2]; Storage 25° C./60% RH, 6 m",0.06%
same,(E)-endoxifen content,"[2]; Storage 25° C./60% RH, 9 m",0.19%
same,(Z)-endoxifen % Purity,"[2]; Storage 25° C./60% RH, 9 m",99.5%
same,Max Indiv. Impurity,"[2]; Storage 25° C./60% RH, 9 m",0.11%
same,Water content (Karl Fischer),"[2]; Storage 25° C./60% RH, 9 m",0.07%
same,(Z)-endoxifen USP <921≥ Plate Count,[2]; Storage 40° C./75% RH,13776 cfu g/mL
same,(E)-endoxifen content,"[2]; Storage 40° C./75% RH, 0 m",0.19%
same,(Z)-endoxifen % Purity,"[2]; Storage 40° C./75% RH, 0 m",99.5%
same,Max Indiv. Impurity,"[2]; Storage 40° C./75% RH, 0 m",0.11%
same,Water content (Karl Fischer),"[2]; Storage 40° C./75% RH, 0 m",0.06%
same,(E)-endoxifen content,"[2]; Storage 40° C./75% RH, 3 m",0.17%
same,(Z)-endoxifen % Purity,"[2]; Storage 40° C./75% RH, 3 m",99.5%
same,Max Indiv. Impurity,"[2]; Storage 40° C./75% RH, 3 m",0.11%
same,Water content (Karl Fischer),"[2]; Storage 40° C./75% RH, 3 m",0.07%
same,time for which stable,[2]; ambient temperature,at least 9 months
same,time for which stable,"[2]; solid, 5° C.",at least 9 months
same,time for which stable,"[2]; solid, 25° C./60% RH",at least 9 months
same,aerobic bacterial plate count TAC,[2]; storage conditions studied,"less than 20,000 cfu g/mL"
same,water content,[2]; storage conditions studied,not more than 1%
